Laboratory results: EP2951180B1, “2,6,7,8 SUBSTITUTED PURINES AS HDM2 INHIBITORS” (Merck Sharp & Dohme Corp., priority 2013, dated 2014)

Target: T1, HDM2 (Homo sapiens, UniProt Q00987)
T1 construct: Thioredoxin (N); made in house; host or cells: E. coli strain BL21(DE3)Rosetta
Experiment: HDM2 FRET assay (inhibition of binding of FITC labeled p53-pocket peptide to HDM2)
Conditions: Table 6; read-out: FRET IC50
In short: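 Final: 0.5 nM His-HDM2, 3 nM FITC peptide, 0.25 nM Tb anti-His Ab; PBS, 0.01% BSA, 0.01% Tween-20; 0.1% DMSO.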

T1 sequence (Q00987 17-125): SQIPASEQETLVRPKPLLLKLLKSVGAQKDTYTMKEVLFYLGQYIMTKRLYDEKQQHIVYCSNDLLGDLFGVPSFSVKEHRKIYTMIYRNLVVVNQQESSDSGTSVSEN

Row | Structure (SMILES) | IC50
1 | Cc1cccc(-c2nc3nc(C(=O)O)nc(NC4CCC(CNC(=O)OC(C)(C)C)CC4)c3n2Cc2ccc(C(F)(F)F)cc2)c1 (stereo not drawn) [Example 6.35, 6-[(4-{[(tert-butoxycarbonyl)amino]methyl}cyclohexyl)amino]-8-(3-methylphenyl)-7-[4-(trifluoromethyl)benzyl]-7H-purine-2-carboxylic acid] | 2340 nM
2 | Cc1cccc(-c2nc3nc(C(=O)O)nc(NCC4CC4)c3n2Cc2ccc(C(F)(F)F)cc2)c1 [Example 6.36, 6-[(cyclopropylmethyl)amino]-8-(3-methylphenyl)-7-[4-(trifluoromethyl)benzyl]-7H-purine-2-carboxylic acid] | 670 nM
3 | Cc1cccc(-c2nc3nc(C(=O)O)nc(NC(C)C4CC4C)c3n2Cc2ccc(C(F)(F)F)cc2)c1 (stereo not drawn) [Example 6.37, 6-{[1-(2-methylcyclopropyl)ethyl]amino}-8-(3-methylphenyl)-7-[4-(trifluoromethyl)benzyl]-7H-purine-2-carboxylic acid] | 360 nM
4 | Cc1cccc(-c2nc3nc(C(=O)O)nc(NC(C)C4CC4C)c3n2Cc2ccc(C(F)(F)F)cc2)c1 (stereo not drawn) [Example 6.38, 6-{[1-(2-methylcyclopropyl)ethyl]amino}-8-(3-methylphenyl)-7-[4-(trifluoromethyl)benzyl]-7H-purine-2-carboxylic acid] | 530 nM
5 | Cc1cccc(-c2nc3nc(C(=O)O)nc(NC(C)C(C)(C)O)c3n2Cc2ccc(C(F)(F)F)cc2)c1 (stereo not drawn) [Example 6.39, 6-[(2-hydroxy-1,2-dimethylpropyl)amino]-8-(3-methylphenyl)-7-[4-(trifluoromethyl)benzyl]-7H-purine-2-carboxylic acid] | 2260 nM
6 | Cc1cccc(-c2nc3nc(C(=O)O)nc(NC4CCC(CO)CC4)c3n2Cc2ccc(C(F)(F)F)cc2)c1 (stereo not drawn) [Example 6.40, 6-{[4-(hydroxymethyl)cyclohexyl]amino}-8-(3-methylphenyl)-7-[4-(trifluoromethyl)benzyl]-7H-purine-2-carboxylic acid] | 925 nM
7 | Cc1cccc(-c2nc3nc(C(=O)O)nc(N[C@@H](C)C(C)(C)C)c3n2Cc2ccc(C(F)(F)F)cc2)c1 [Example 6.41, 8-(3-methylphenyl)-7-[4-(trifluoromethyl)benzyl]-6-{[(1S)-1,2,2-trimethylpropyl]amino}-7H-purine-2-carboxylic acid] | 638 nM
8 | Cc1cccc(-c2nc3nc(C(=O)O)nc(N[C@H](C)C4CCCCC4)c3n2Cc2ccc(C(F)(F)F)cc2)c1 [Example 6.42, 6-{[(1R)-1-cyclohexylethyl]amino}-8-(3-methylphenyl)-7-[4-(trifluoromethyl)benzyl]-7H-purine-2-carboxylic acid] | 564 nM
9 | Cc1cccc(-c2nc3nc(C(=O)O)nc(NC4CCOCC4)c3n2Cc2ccc(C(F)(F)F)cc2)c1 [Example 6.43, 8-(3-methylphenyl)-6-(tetrahydro-2H-pyran-4-ylamino)-7-[4-(trifluoromethyl)benzyl]-7H-purine-2-carboxylic acid] | 1710 nM
10 | Cc1cccc(-c2nc3nc(C(=O)O)nc(N[C@H](C)c4ccc(Cl)cc4)c3n2Cc2ccc(C(F)(F)F)cc2)c1 [Example 6.44, 6-{[(1R)-1-(4-chlorophenyl)ethyl]amino}-8-(3-methylphenyl)-7-[4-(trifluoromethyl)benzyl]-7H-purine-2-carboxylic acid] | 372 nM
11 | Cc1cccc(-c2nc3nc(C(=O)O)nc(N[C@@H](C)C4CCCCC4)c3n2Cc2ccc(C(F)(F)F)cc2)c1 [Example 6.45, 6-{[(1S)-1-cyclohexylethyl]amino}-8-(3-methylphenyl)-7-[4-(trifluoromethyl)benzyl]-7H-purine-2-carboxylic acid] | 1610 nM
12 | Cc1cccc(-c2nc3nc(C(=O)O)nc(N[C@@H](C)c4ccc(Cl)cc4)c3n2Cc2ccc(C(F)(F)F)cc2)c1 [Example 6.46, 6-{[(1S)-1-(4-chlorophenyl)ethyl]amino}-8-(3-methylphenyl)-7-[4-(trifluoromethyl)benzyl]-7H-purine-2-carboxylic acid] | 4120 nM
13 | Cc1cccc(-c2nc3nc(C(=O)O)nc(N[C@H](C)C(C)(C)C)c3n2Cc2ccc(C(F)(F)F)cc2)c1 [Example 6.47, 8-(3-methylphenyl)-7-[4-(trifluoromethyl)benzyl]-6-{[(1R)-1,2,2-trimethylpropyl]amino}-7H-purine-2-carboxylic acid] | 448 nM
14 | Cc1cccc(-c2nc3nc(C(=O)O)nc(N[C@H](C)C(C)C)c3n2Cc2ccc(C(F)(F)F)cc2)c1 [Example 6.48, 6-{[(1R)-1,2-dimethylpropyl]amino}-8-(3-methylphenyl)-7-[4-(trifluoromethyl)benzyl]-7H-purine-2-carboxylic acid] | 145 nM
15 | Cc1cccc(-c2nc3nc(C(=O)O)nc(N[C@@H](C)C(C)C)c3n2Cc2ccc(C(F)(F)F)cc2)c1 [Example 6.49, 6-{[(1S)-1,2-dimethylpropyl]amino}-8-(3-methylphenyl)-7-[4-(trifluoromethyl)benzyl]-7H-purine-2-carboxylic acid] | 622 nM
16 | Cc1cccc(-c2nc3nc(C(=O)O)nc(NCC4CCCCC4)c3n2Cc2ccc(C(F)(F)F)cc2)c1 [Example 6.50, 6-[(cyclohexylmethyl)amino]-8-(3-methylphenyl)-7-[4-(trifluoromethyl)benzyl]-7H-purine-2-carboxylic acid] | 1370 nM
17 | CCN(CC)c1nc(C(=O)O)nc2nc(-c3cccc(C)c3)n(Cc3ccc(C(F)(F)F)cc3)c12 [Example 6.51, 6-(diethylamino)-8-(3-methylphenyl)-7-[4-(trifluoromethyl)benzyl]-7H-purine-2-carboxylic acid] | 4600 nM
18 | Cc1cccc(-c2nc3nc(C(=O)O)nc(N[C@H](C4CC4)C(F)(F)F)c3n2Cc2ccc(C(F)(F)F)cc2)c1 [Example 6.52, 6-{[(1R)-1-cyclopropyl-2,2,2-trifluoroethyl]amino}-8-(3-methylphenyl)-7-[4-(trifluoromethyl)benzyl]-7H-purine-2-carboxylic acid] | 319 nM
19 | Cc1cccc(-c2nc3nc(C(=O)O)nc(N[C@@H](C4CC4)C(F)(F)F)c3n2Cc2ccc(C(F)(F)F)cc2)c1 [Example 6.53, 6-{[(1S)-1-cyclopropyl-2,2,2-trifluoroethyl]amino}-8-(3-methylphenyl)-7-[4-(trifluoromethyl)benzyl]-7H-purine-2-carboxylic acid] | 419 nM
20 | CC[C@H](Nc1nc(C(=O)O)nc2nc(-c3cc(C(C)C)ccn3)n(Cc3ccc(C(F)(F)F)cc3)c12)C1CCC1 [Example 6.54, 6-{[(1S)-1-cyclobutylpropyl]amino}-8-[4-(1-methylethyl)pyridin-2-yl]-7-[4-(trifluoromethyl)benzyl]-7H-purine-2-carboxylic acid] | 203 nM
21 | CC[C@@H](Nc1nc(C(=O)O)nc2nc(-c3cc(C(C)C)ccn3)n(Cc3ccc(C(F)(F)F)cc3)c12)C1CCC1 [Example 6.55, 6-{[(1R)-1-cyclobutylpropyl]amino}-8-[4-(1-methylethyl)pyridin-2-yl]-7-[4-(trifluoromethyl)benzyl]-7H-purine-2-carboxylic acid] | 9.27 nM
22 | COc1ccc(C)cc1-c1nc2nc(C(=O)O)nc(N[C@H](C)C3CC3(C)C)c2n1Cc1ccc(C(F)(F)F)cc1 (stereo partly drawn) [Example 6.56, 6-{[(1R)-1-(2,2-dimethylcyclopropyl)ethyl]amino}-8-(2-methoxy-5-methylphenyl)-7-[4-(trifluoromethyl)benzyl]-7H-purine-2-carboxylic acid] | 1410 nM
23 | CC(C)c1ccnc(-c2nc3nc(C(=O)O)nc(N[C@@H](c4ccccc4)C4CCC4)c3n2Cc2ccc(C(F)(F)F)cc2)c1 [Example 6.57, 6-{[(R)-cyclobutyl(phenyl)methyl]amino}-8-[4-(1-methylethyl)pyridin-2-yl]-7-[4-(trifluoromethyl)benzyl]-7H-purine-2-carboxylic acid] | 1060 nM
24 | CC(C)c1ccnc(-c2nc3nc(C(=O)O)nc(N[C@H](c4ccccc4)C4CCC4)c3n2Cc2ccc(C(F)(F)F)cc2)c1 [Example 6.58, 6-{[(S)-cyclobutyl(phenyl)methyl]amino}-8-[4-(1-methylethyl)pyridin-2-yl]-7-[4-(trifluoromethyl)benzyl]-7H-purine-2-carboxylic acid] | 49.2 nM
25 | CCN(C)c1nc(C(=O)O)nc2nc(-c3cccc(C)c3)n(Cc3ccc(C(F)(F)F)cc3)c12 [Example 6.59, 6-[ethyl(methyl)amino]-8-(3-methylphenyl)-7-[4-(trifluoromethyl)benzyl]-7H-purine-2-carboxylic acid] | 1000 nM
26 | CC[C@@H](C)Nc1nc(C(=O)O)nc2nc(-c3cccc(C)c3)n(Cc3ccc(C(F)(F)F)cc3)c12 [Example 6.60, 8-(3-methylphenyl)-6-{[(1R)-1-methylpropyl]amino}-7-[4-(trifluoromethyl)benzyl]-7H-purine-2-carboxylic acid] | 583 nM
27 | CCC(C)CNc1nc(C(=O)O)nc2nc(-c3cccc(C)c3)n(Cc3ccc(C(F)(F)F)cc3)c12 (stereo not drawn) [Example 6.63, 6-[(2-methylbutyl)amino]-8-(3-methylphenyl)-7-[4-(trifluoromethyl)benzyl]-7H-purine-2-carboxylic acid] | 719 nM
28 | CCCC(CCC)Nc1nc(C(=O)O)nc2nc(-c3cccc(C)c3)n(Cc3ccc(C(F)(F)F)cc3)c12 [Example 6.64, 8-(3-methylphenyl)-6-[(1-propylbutyl)amino]-7-[4-(trifluoromethyl)benzyl]-7H-purine-2-carboxylic acid] | 920 nM

Same assay, conditions: read-out: inh. at 1000 nM (FRET)

Row | Structure (SMILES) | inhibition at 1 µM
29 | CC[C@H](C)Nc1nc(C(=O)O)nc2nc(-c3cccc(C)c3)n(Cc3ccc(C(F)(F)F)cc3)c12 [Example 6.61, 8-(3-methylphenyl)-6-{[(1S)-1-methylpropyl]amino}-7-[4-(trifluoromethyl)benzyl]-7H-purine-2-carboxylic acid] | 41%
30 | Cc1cccc(-c2nc3nc(C(=O)O)nc(NC(C)CC(C)C)c3n2Cc2ccc(C(F)(F)F)cc2)c1 (stereo not drawn) [Example 6.62, 6-[(1,3-dimethylbutyl)amino]-8-(3-methylphenyl)-7-[4-(trifluoromethyl)benzyl]-7H-purine-2-carboxylic acid] | 34%
